From patent publication US9073927B2, “Inhibitors of PI3 kinase” (FUNDACION CENTRO NACIONAL DE INVESTIGACIONES ONCOLOGICAS …, priority 2010, dated 2015) come the findings set out here.

Where two headings read alike, the source gives them in different places.

The target in test [1] is T1, PI3K (p110α/p85α) (Homo sapiens, UniProt P42336).
T1 construct: purchased Carna Biosciences 07CBS-0402A
The test is described as follows: PI3K activity assay (ADP Hunter Plus). In kind it is biochemical. Here is the method: The kinase activity was measured by using the commercial ADP Hunter™ Plus assay available from DiscoveRx (#33-016), which is a homogeneous assay to measure the accumulation of ADP, a universal product of kinase activity. The enzyme, PI3K (p110α/p85α was purchased from Carna Biosciences (#07CBS-0402A). The assay was done following the manufacturer recommendations with slight modifications: Mainly the kinase buffer was replace by 50 mM HEPES, pH 7.5, 3 mM MgCl2, 100 mM NaCl, 1 mM EGTA, 0.04% CHAPS, 2 mM TCEP and 0.01 mg/ml BGG. The PI3K was assayed in a titration experiment to determine the optimal protein concentration for the inhibition assay. To calculate the IC50 of the ETP-compounds, serial 1:5 dilutions of the compounds were added to the enzyme at a fixed concentration (2.5 μg/ml. The enzyme was preincubated with the inhibitor and 30 μM PIP2 substrate (P9763, Sigma) for 5 min and then ATP was added to a final 50 μM concentration. Reaction was carried out for 1 hour at 25° C. Reagent A and B were sequentially added to the wells and plates were incubated for 30 min at 37° C. Fluorescence counts were read in a Victor instrument (Perkin Elmer) with the recommended settings (544 and 580 nm as excitation and emission wavelengths, respectively). Values were normalized against the control activity included for each enzyme (i.e., 100% PI3 kinase activity, without compound). These values were plot against the inhibitor concentration and were fit to a sigmoid dose-response curve by using the Graphad software.

Test [2] relates to phospho-Ser-473-Akt. Briefly: PI3K signalling: AKT phosphorylation inhibition, Western blot analysis. It is filed as cell-based. The settings on record: read-out: p-AKT (IC50, WB). Here is the method: AKT Phosphorylation Inhibition Western Blot Analysis
Subconfluent cells were incubated under different conditions and washed twice with TBS prior to lysis. Lysis buffer was added containing 50 mM Tris HCl, 150 mM NaCl, 1% NP-40, 2 mM Na3VO4, 100 mM NaF, 20 mM Na4P2O7 and protease inhibitor cocktail (Roche Molecular Biochemicals). The proteins were resolved on 10% SDS-PAGE and transferred to nitrocellulose membrane (Schleicher & Schuell, Dassel, Germany). The membranes were incubated overnight at 4° C. with antibodies specific for Akt, phospho-Ser-473-Akt (Cell Signaling Technology) and α-tubulin (Sigma), they were washed and then incubated with IRDye800 conjugated anti-mouse and Alexa Fluor 680 goat anti-rabbit IgG secondary antibodies. The bands were visualized using an Odyssey infrared imaging system (Li-Cor Biosciences). Compounds of the invention have a range of in vitro cell potency activities from about 1 nM to about 10 μM.
Compounds of the examples/invention were tested in the PI3K signalling cellular assay described hereinbefore (Western Blot Analysis), which measures AKT phosphorylation inhibition. Cellular activity of representative compounds, is represented in the table below: […]

For test [3], the system named is A549 cells. The test is described as follows: In vitro cell proliferation / combination assay (MTT), A549. In kind it is cell-based. The following applies: for EC50: Homo sapiens, A549, Lung, Ras G12S; for Synergy / Combination Index (Cl): A549; for Combination Index (Cl): Chou and Talalay. Here is the method:
(§1) Cells were seeded at 10000-50000 cells/well in 96 plates for 16 h. On day two, nine serial 1:3 compound dilutions were made in DMSO in a 96 well plate. The compounds were added to duplicate wells in 96-well cell plates a using a FX BECKMAN robot (Beckman Coulter) and incubated at 37° C. with CO2 atmosphere. After 3 days, relative numbers of viable cells were measured by MTT (Sigma) according to manufacturer's instruction and read on EndVision (Perkin Elmer). EC50 values were calculated using Activityl)ase from IDBS. Drugs in combination assays were dosed starting at 4×EC50 concentrations and continuing with serial dilutions 1:2. PI3K inhibitors and chemotherapeutic agents were added simultaneously.
An additional exemplary in vitro cell proliferation assay includes the following steps: • 1. An aliquot of 200 μl of cell culture containing optimal density (between 10^4-5×10^4 cells) (see Examples for cell lines and tumour type) in medium was deposited in each well of a 96-well flat bottom plates. • 2. Control wells were prepared containing medium without cells • 3. The compound was added to the experimental wells and incubated for 3 days. • 4. One quarter volume of MTT reagent with respect to the volume of cell culture medium present in each well was added and incubated 24 h at 37° C. with 5% CO2. • 5. One quarter volume of solubilisation buffer with respect to the volume of cell culture medium present in each well was added and incubated 24 h at 37° C. with 5% CO2. • 6. Formazan salt formed was recorded and reported in graphs as relative growth vs. cells treated only with dmso.
The individual measured EC50 values against the particular cell of the exemplary compounds and of the chemotherapeutic agent are compared to the combination EC50 value. The combination Index (CI) score is calculated by the Chou and Talalay method (CalcuSyn software, Biosoft). A CI less 0.8 indicates synergy. A CI between 0.8 and 1.2 indicates additivity. A CI greater than 1.2 indicates antagonism.
The individual measured EC50 values against the particular cell of the exemplary compounds and of the chemotherapeutic agents are compared to the combination EC50 value. The combination Index (CI) score is calculated by the Chou and Talalay method (CalcuSyn software, Biosoft). A CI less 0.8 indicates synergy. A CI between 0.8 and 1.2 indicates additivity. A CI greater than 1.2 indicates antagonism.

Test [4] deals with SKVO3 cells. The test is described as follows: In vitro cell proliferation / combination assay (MTT), SKVO3. It is filed as cell-based. The settings on record: SKVO3, Ovarian, PIK3CA, p53. Here is the method:
as §1, with “PI3K inhibitors and chemotherapeutic agents were added simultaneously.” left out
An additional exemplary in vitro cell proliferation assay includes the following steps: • 1. […] Formazan salt formed was recorded and reported in graphs as relative growth vs. cells treated only with dmso.
The individual measured EC50 values against the particular cell of the exemplary compounds and of the chemotherapeutic agent are compared to the combination EC50 value. The combination Index (CI) score is calculated by the Chou and Talalay method (CalcuSyn software, Biosoft). […]
The individual measured EC50 values against the particular cell of the exemplary compounds and of the chemotherapeutic agents are compared to the combination EC50 value. The combination Index (CI) score is calculated by the Chou and Talalay method (CalcuSyn software, Biosoft). […]

[5] abbreviates: therapeutic (comp. (B)) alone, read-out: Chemot. EC50.
[6] abbreviates: combination of 2-4 with Lapatinib.
Where [7] appears, read: combination of 2-4 with PD-0325901.
The mark [8] stands for this setting: compound alone, read-out: Compound No. 2-4 (comp. (A)) EC50.

T1 sequence (P42336 whole entry): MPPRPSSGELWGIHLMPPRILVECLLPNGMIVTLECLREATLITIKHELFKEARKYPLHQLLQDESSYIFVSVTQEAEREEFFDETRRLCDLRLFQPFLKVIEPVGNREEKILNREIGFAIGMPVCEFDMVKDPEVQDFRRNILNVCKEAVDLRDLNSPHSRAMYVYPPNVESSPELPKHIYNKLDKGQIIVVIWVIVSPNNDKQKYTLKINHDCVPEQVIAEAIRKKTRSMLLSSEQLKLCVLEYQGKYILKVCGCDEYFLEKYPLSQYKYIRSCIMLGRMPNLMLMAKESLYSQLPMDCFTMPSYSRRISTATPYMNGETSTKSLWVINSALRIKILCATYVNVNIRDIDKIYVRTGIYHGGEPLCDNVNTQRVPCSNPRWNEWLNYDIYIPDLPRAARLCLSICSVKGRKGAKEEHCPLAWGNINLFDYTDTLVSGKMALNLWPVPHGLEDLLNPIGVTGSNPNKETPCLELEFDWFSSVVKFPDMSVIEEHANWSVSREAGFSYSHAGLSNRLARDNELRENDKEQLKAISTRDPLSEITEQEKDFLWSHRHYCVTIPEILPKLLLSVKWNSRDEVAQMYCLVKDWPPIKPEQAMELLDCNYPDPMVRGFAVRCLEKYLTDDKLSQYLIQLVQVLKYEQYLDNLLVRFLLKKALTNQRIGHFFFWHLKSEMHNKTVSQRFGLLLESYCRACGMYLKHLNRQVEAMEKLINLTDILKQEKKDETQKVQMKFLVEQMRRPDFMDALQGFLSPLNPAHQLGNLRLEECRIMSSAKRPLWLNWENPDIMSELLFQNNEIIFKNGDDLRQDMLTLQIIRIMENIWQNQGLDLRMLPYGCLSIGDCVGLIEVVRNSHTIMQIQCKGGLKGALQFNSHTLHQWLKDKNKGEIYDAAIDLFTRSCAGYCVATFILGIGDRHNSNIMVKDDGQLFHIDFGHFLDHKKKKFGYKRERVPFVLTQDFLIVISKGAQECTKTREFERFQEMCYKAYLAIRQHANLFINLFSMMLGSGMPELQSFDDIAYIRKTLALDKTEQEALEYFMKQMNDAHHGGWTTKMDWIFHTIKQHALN
T1 sequence (P27986 whole entry partner): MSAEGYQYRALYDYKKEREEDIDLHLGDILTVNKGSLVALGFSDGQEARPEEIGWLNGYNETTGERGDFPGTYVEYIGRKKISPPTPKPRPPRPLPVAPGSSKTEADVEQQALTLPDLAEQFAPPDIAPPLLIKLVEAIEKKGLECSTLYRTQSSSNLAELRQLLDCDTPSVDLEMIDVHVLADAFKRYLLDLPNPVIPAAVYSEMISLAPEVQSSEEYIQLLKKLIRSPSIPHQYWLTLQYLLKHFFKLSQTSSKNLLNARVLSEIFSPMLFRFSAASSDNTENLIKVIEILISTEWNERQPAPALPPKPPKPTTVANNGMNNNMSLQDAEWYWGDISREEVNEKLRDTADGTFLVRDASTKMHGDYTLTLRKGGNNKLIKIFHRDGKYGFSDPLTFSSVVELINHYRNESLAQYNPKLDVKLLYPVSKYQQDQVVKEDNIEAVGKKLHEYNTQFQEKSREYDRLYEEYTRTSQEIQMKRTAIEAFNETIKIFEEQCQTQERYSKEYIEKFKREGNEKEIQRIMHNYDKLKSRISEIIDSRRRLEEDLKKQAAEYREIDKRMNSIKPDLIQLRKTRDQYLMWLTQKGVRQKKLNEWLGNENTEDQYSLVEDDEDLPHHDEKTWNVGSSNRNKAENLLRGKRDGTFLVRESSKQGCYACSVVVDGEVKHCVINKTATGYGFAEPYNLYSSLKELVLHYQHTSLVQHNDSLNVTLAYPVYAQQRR

As to `OCc1cc2c(N3CCOCC3)nc(-c3cccc(O)c3)cn2n1` [Compound 3-2], the IC50 in test [1] (Table 4, read-out: PI3Kα) came out at 174 nM.

For the compound `Cc1nnc2c(N3CCOCC3)nc(-c3cnc(N)nc3)cn12` [Compound 3-5], the IC50 in test [1] (Table 4, read-out: PI3Kα) came out at 165 nM.

Turning to `CS(=O)(=O)N1CCN(Cc2cn3nc(-c4cnc(N)nc4)nc(N4CCOCC4)c3n2)CC1` [Compound 3-9], the IC50 worked out at 5 nM in test [2] and 3 nM in test [1] (Table 4, read-out: PI3Kα).

Regarding `COCCN(C)Cc1cc2c(N3CCOCC3)nc(-c3cnc(N)nc3)cn2n1` [Compound 3-14, 5-(2-{[(2-methoxy-ethyl)-methyl-amino]-methyl}-4-morpholin-4-yl-pyrazolo[1,5-a]pyrazin-6-yl)-pyrimidin-2-ylamine], in test [1] (read-out: IC50 PI3Kα), the IC50 stood at 106 nM.

As to `CS(=O)(=O)N1CCN(Cc2cc3c(N4CCOCC4)nc(-c4cnc(N)nc4)cn3n2)CC1` [Compound 3-10, 5-[2-(4-methanesulfonyl-piperazin-1-ylmethyl)-4-morpholin-4-yl-pyrazolo[1,5-a]pyrazin-6-yl]-pyrimidin-2-ylamine], the IC50 in test [2] worked out at 14 nM; in test [1] (Table 4, read-out: PI3Kα) it was 2 nM.

As for `CS(=O)(=O)N1CCC(NCc2cc3c(N4CCOCC4)nc(-c4cnc(N)nc4)cn3n2)CC1` [Compound 3-13, 5-{2-[(1-methanesulfonyl-piperidin-4-ylamino)-methyl]-4-morpholin-4-yl-pyrazolo[1,5-a]pyrazin-6-yl}-pyrimidin-2-ylamine], in test [1] (read-out: IC50 PI3Kα), the IC50 was 58 nM.

Regarding `CC(C)S(=O)(=O)N1CCN(Cc2cc3c(N4CCOCC4)nc(-c4cnc(N)nc4)cn3n2)CC1` [Compound 3-18, 5-{4-morpholin-4-yl-2-[4-(propane-2-sulfonyl)-piperazin-1-ylmethyl]-pyrazolo[1,5-a]pyrazin-6-yl}-pyrimidin-2-ylamine], the IC50 in test [1] (read-out: IC50 PI3Kα) was 6 nM.

Consider `CS(=O)(=O)CCNCc1ccc(-c2ccc3ncnc(Nc4ccc(OCc5cccc(F)c5)c(Cl)c4)c3c2)o1` [Lapatinib, N-(3-chloro-4-(3-fluorobenzyloxy)phenyl)-6-(5-((2-(methylsulfonyl)ethylamino)-methyl)furan-2-yl)quinazolin-4-amine, reference compound], for which the EC50 in test [3] (setting [5]) worked out at 1000 nM.

As to `CS(=O)(=O)N1CCN(Cc2nc3c(N4CCOCC4)nc(-c4cnc(N)nc4)c(Cl)n3n2)CC1` [Compound 2-4], the Synergy result is recorded as “− (a combination index greater than 1.2)” in test [3] (setting [6]) and “+++ (a combination index greater than 0.1 but lower than 0.3)” in test [3] (setting [7]). For the same compound, the “Combination Index (Cl)” value in test [3] (setting [6]) is 2.44; in test [3] (setting [7]), 0.27. In addition, the EC50 in test [3] (setting [8]) and in test [4] (setting [8]) was 1000 nM each time. Also, the IC50 in test [2] is 64 nM; in test [1] (Table 3, read-out: PI3Kα) it was 1.4 nM.

`CC(=O)O[C@@]12CO[C@@H]1C[C@H](O)[C@@]1(C)C(=O)[C@H](O)C3=C(C)[C@@H](OC(=O)[C@H](O)[C@@H](NC(=O)OC(C)(C)C)c4ccccc4)C[C@](O)([C@@H](OC(=O)c4ccccc4)[C@H]21)C3(C)C` [Taxotere, (2R,3S)—N-carboxy-3-phenylisoserine, N-tert-butyl ester, 13-ester with 5,20-epoxy-1,2,4,7,10,13-hexahydroxytax-11-en-9-one 4-acetate 2-benzoate, trihydrate, reference compound]: the EC50 in test [4] (setting [5]) was found to be 2000 nM.

Regarding `Oc1cccc(-c2cn3cncc3c(N3CCOCC3)n2)c1` [Compound 3-11], the IC50 in test [1] (Table 4, read-out: PI3Kα) amounted to 317 nM.

For the compound `CS(=O)(=O)N1CCN(Cc2nc3c(N4CCOCC4)nc(-c4cccc5[nH]ncc45)cn3n2)CC1` [Compound 2-2], the IC50 in test [1] (Table 3, read-out: PI3Kα) came to 128 nM.

For `O=C(NOC[C@H](O)CO)c1ccc(F)c(F)c1Nc1ccc(I)cc1F` [PD-0325901, (R)—N-(2,3-dihydroxypropoxy)-3,4-difluoro-2-(2-fluoro-4-iodophenylamino)benz-amide, reference compound], the EC50 in test [3] (setting [5]) came to 1000 nM.

Consider `CS(=O)(=O)N1CCCN(Cc2cc3c(N4CCOCC4)nc(-c4cnc(N)nc4)cn3n2)CC1` [Compound 3-16, 5-[2-(4-methanesulfonyl-[1,4]diazepan-1-ylmethyl)-4-morpholin-4-yl-pyrazolo[1,5-a]pyrazin-6-yl]-pyrimidin-2-ylamine], for which, in test [1] (read-out: IC50 PI3Kα), the IC50 worked out at 13 nM.

Regarding `Nc1ncc(-c2cn3nc(CN4CCOCC4)cc3c(N3CCOCC3)n2)cn1` [Compound 3-17, 5-(4-morpholin-4-yl-2-morpholin-4-ylmethyl-pyrazolo[1,5-a]pyrazin-6-yl)-pyrimidin-2-ylamine], the IC50 in test [1] (read-out: IC50 PI3Kα) was 80 nM.

Turning to `Cc1nnc2c(N3CCOCC3)nc(-c3cccc(O)c3)cn12` [Compound 3-6], in test [1] (Table 4, read-out: PI3Kα), the IC50 was determined as 952 nM.

`COc1cccc(-c2cn3cncc3c(N3CCOCC3)n2)c1` [Compound 3-12, 6-(3-methoxy-phenyl)-8-morpholin-4-yl-imidazo[1,5-a]pyrazine]: the IC50 in test [1] (Table 4, read-out: PI3Kα) is 2000 nM.

For the compound `CS(=O)(=O)N1CCN(Cc2nc3c(N4CCOCC4)nc(-c4cnc(N)nc4)cn3n2)CC1` [Compound 2-3], the IC50 in test [2] is 12 nM; in test [1] (Table 3, read-out: PI3Kα) it was 3 nM.
